Reference: patent US10150737B2, “Compounds for controlling arthropods” (priority 2013, dated 2018)
Each block holds one compound with its values, some of them ahead of it.

How the values were obtained:
[1] = logP determination by HPLC on a reversed-phase column (C18); type: physicochemical; conditions: for logP^a): HPLC-MS method a); for log P: HPLC-MS; for logP: HPLC, C18 reversed phase, acetonitrile/water with formic acid, EEC Directive 79/831 Annex V.A8
Spodoptera frugiperda = Spodoptera frugiperda - spray test; type: in vivo; conditions: application rate 100 g/ha; caterpillars on maize leaf discs; after 7 days
In short: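 Percent mortality of Spodoptera frugiperda caterpillars scored 7 days after placing them on dried maize leaf discs sprayed at the desired concentration. Spray formulation: compound dissolved in acetone/dimethylformamide, made up with water containing 1000 ppm emulsifier.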

Tetranychus urticae = Tetranychus urticae - spray test, OP-resistant; type: in vivo; conditions: application rate 100 g/ha; bean leaf discs; after 6 days
In short: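 Mortality (%) read on day 6 after spraying Phaseolus vulgaris leaf discs carrying all mite stages with formulations at the desired concentration. Formulation: active ingredient in acetone plus dimethylformamide, made up with emulsifier-containing water (1000 ppm alkylaryl polyglycol ether).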

Ctenocephalides felis [2] = test: Ctenocephalides felis - oral test; type: in vivo; conditions: application rate 100 ppm in citrated cattle blood; after 2 days
In short: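 Roughly 20 unfed adult C. felis imbibe compound-dosed citrated cattle blood (DMSO formulation) across parafilm from a cylinder above their gauze chamber; percentage mortality recorded at day 2.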

Boophilus microplus = Boophilus microplus - injection test; type: in vivo; conditions: application rate 20 μg/animal; injection into engorged adult female ticks; after 7 days
In short: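 Five engorged adult female cattle ticks each received a 1 μl abdominal injection of compound solution in dimethyl sulphoxide. Fertile egg laying was assessed at 7 days, with doubtful eggs incubated about 42 days until hatch. 0% efficacy means all eggs fertile.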

Lucilia cuprina = Lucilia cuprina test; type: in vivo; conditions: application rate 100 ppm; L1 larvae; after 2 days
In short: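 Mortality (%) of first-instar blowfly larvae, about 20 per vessel, recorded 2 days after exposure to compound-treated minced horsemeat. Compound dissolved in dimethyl sulphoxide, then water-diluted to the desired concentration.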

Phaedon cochleariae = Phaedon cochleariae - spray test; type: in vivo; conditions: application rate 100 g/ha; larvae on Chinese cabbage leaf discs; after 7 days
In short: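 Mortality of mustard beetle larvae was scored as % at day 7 on Brassica pekinensis leaf discs. Discs had been treated by spraying at the desired concentration, using an acetone/dimethylformamide solution diluted in water with 1000 ppm alkylaryl polyglycol ether, and dried before larvae were added.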

Musca domestica = Musca domestica test; type: in vivo; conditions: application rate 100 ppm; adult houseflies; after 2 days
In short: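 10 adult flies per vessel; sugar-solution sponge dosed with active ingredient formulation (DMSO concentrate diluted in water to desired concentration). Read-out: % kill at 2 days.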

[3] = tested on: Boophilus microplus Parkhurst strain, SP-resistant; test: Boophilus microplus - dip test; type: in vivo; conditions: application rate 100 ppm; dip of engorged adult female ticks; after 7 days
Protocol: Test animals: cattle ticks (Boophilus microplus) Parkhurst strain, SP-resistant
(§1) Solvent: dimethyl sulphoxide
10 mg of active ingredient are dissolved in 0.5 ml of dimethyl sulphoxide. For the purpose of producing a suitable formulation, the active ingredient solution is diluted with water to the concentration desired in each case.
This active ingredient formulation is pipetted into tubes. 8-10 adult engorged female cattle ticks (Boophilus microplus) are transferred into a further tube with holes. The tube is immersed into the active ingredient formulation, and all the ticks are completely wetted. After the liquid has run out, the ticks are transferred on filter discs into plastic dishes and stored in a climate-controlled room.
Efficacy is assessed after 7 days by laying of fertile eggs. Eggs which are not visibly fertile are stored in a climate-controlled cabinet until the larvae hatch after about 42 days. An efficacy of 100% means that none of the ticks has laid any fertile eggs; 0% means that all the eggs are fertile.

Amblyomma hebraeum = test: Amblyomma hebaraeum test (tick nymphs, immersion); type: in vivo; conditions: application rate 100 ppm; tick nymphs immersed one minute; after 42 days
Protocol: as §1
To produce an appropriate active ingredient formulation, 10 mg of active ingredient are mixed with 0.5 ml of dimethyl sulphoxide, and the concentrate is diluted with water to the desired concentration.
Tick nymphs (Amblyomma hebraeum) are placed into perforated plastic beakers and immersed in the desired concentration for one minute. The ticks are transferred on filter paper into a Petri dish and stored in a climate-controlled cabinet.
After 42 days, the kill in % is determined. 100% means that all of the ticks have been killed; 0% means that none of the ticks have been killed.

Ctenocephalides felis [4] = test: Ctenocephalides felis - in vitro contact tests with adult cat fleas; type: in vivo; conditions: application rate 5 μg/cm2 (=500 g/ha); after 48 h; fleas dead or moribund
In short: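 Efficacy, as percentage of fleas dead or moribund, was scored at 48 h by knocking fleas to the tube base. Exposure was by contact with a dried acetone film of compound at 5 μg/cm^2 area dose; 5–10 adults per tube, room temperature, ambient humidity.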

Rhipicephalus sanguineus = Rhipicephalus sanguineus - in vitro contact tests with adult brown dog ticks; type: in vivo; conditions: application rate 5 μg/cm2; after 48 h; ticks dead or moribund
Protocol: For the coating of the test tubes, 9 mg of active ingredient are first dissolved in 1 ml of acetone p.a. and then diluted to the desired concentration with acetone p.a. 250 μl of the solution are distributed homogeneously on the inner walls and base of a 25 ml test tube by turning and rocking on an orbital shaker (rocking rotation at 30 rpm for 2 h). With 900 ppm active ingredient solution and internal surface 44.7 cm^2, given homogeneous distribution, an area-based dose of 5 μg/cm^2 is achieved.
After the solvent has evaporated off, the tubes are populated with 5-10 adult dog ticks (Rhipicephalus sanguineus), sealed with a perforated plastic lid and incubated in a horizontal position in the dark at room temperature and ambient humidity. After 48 h, efficacy is determined. To this end, the ticks are knocked to the floor of the tube and incubated on a hotplate at 45-50° C. for not more than 5 min. Ticks which remain motionless on the floor or move in such an uncoordinated manner that they are unable to deliberately avoid the heat by climbing upwards are considered to be dead or moribund.
An efficacy of 100% means that all the ticks were dead or moribund. 0% efficacy means that none of the ticks had been harmed.

Myzus persicae = Myzus persicae - spray test; type: in vivo; conditions: application rate 100 g/ha; Chinese cabbage leaf discs; after 6 days
In short: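 Mortality of the green peach aphid, as % killed, was read 6 days after spraying infested Brassica pekinensis leaf discs. Compound formulated in acetone/dimethylformamide and made up with emulsifier-containing (1000 ppm) water.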

[5] = reversed-phase column (C18), Table I-T3

Compound: N#CC1(NC(=O)c2cc(-c3cnn(-c4c(Cl)cc(C(F)(C(F)(F)F)C(F)(F)F)cc4C(F)(F)F)c3)ccc2Cl)CC1 [I-T3-57]
logP^a) [1]: 4.3 | logP^a) [1, 5]: 4.3 | efficacy (Spodoptera frugiperda): 100% | efficacy (Tetranychus urticae): 100% | efficacy (kill) (Ctenocephalides felis [2]): 100% | efficacy (laying of fertile eggs) (Boophilus microplus): 100% | efficacy (kill) (Lucilia cuprina): 100% | efficacy (Phaedon cochleariae): 100% | efficacy (kill) (Musca domestica): 100% | efficacy (laying of fertile eggs) [3]: 100% | efficacy (kill) (Amblyomma hebraeum): 100% | efficacy (Ctenocephalides felis [4]): 100%

Compound: CCc1cc(C(F)(F)C(F)(F)F)cc(C)c1-n1cc(-c2ccc(Cl)c(C(=O)NC3(C#N)CC3)c2)cn1 [I-T3-80]
logP^a) [1]: 4.2 | logP^a) [1, 5]: 4.2 | efficacy (Spodoptera frugiperda): 100% | efficacy (Tetranychus urticae): 100% | efficacy (kill) (Ctenocephalides felis [2]): 100% | efficacy (Rhipicephalus sanguineus): 80% | efficacy (laying of fertile eggs) (Boophilus microplus): 100% | efficacy (kill) (Lucilia cuprina): 100% | efficacy (Myzus persicae): 90% | efficacy (Phaedon cochleariae): 100% | efficacy (kill) (Musca domestica): 100% | efficacy (laying of fertile eggs) [3]: 80% | efficacy (Ctenocephalides felis [4]): 100%

Compound: Cc1cc(C(F)(C(F)(F)F)C(F)(F)F)cc(Br)c1-n1cc(-c2ccc(Cl)c(C(=O)NC3CC3)c2)cn1 [I-T3-86]
logP^a) [1]: 4.5 | logP^a) [1, 5]: 4.5 | efficacy (Spodoptera frugiperda): 100% | efficacy (Tetranychus urticae): 100% | efficacy (kill) (Ctenocephalides felis [2]): 100% | efficacy (laying of fertile eggs) (Boophilus microplus): 100% | efficacy (kill) (Lucilia cuprina): 100% | efficacy (Phaedon cochleariae): 100% | efficacy (kill) (Musca domestica): 100% | efficacy (laying of fertile eggs) [3]: 100% | efficacy (kill) (Amblyomma hebraeum): 100% | efficacy (Ctenocephalides felis [4]): 100%

Compound: O=C(NC1CC1)c1cc(-c2cnn(-c3c(Br)cc(C(F)(C(F)(F)F)C(F)(F)F)cc3C(F)(F)F)c2)cnc1Cl [I-T3-160]
logP^a) ([1]; reversed-phase column (C18)): 4.0 | log P [1, 5]: 4.0 | efficacy (Spodoptera frugiperda): 100% | efficacy (Tetranychus urticae): 100% | efficacy (kill) (Ctenocephalides felis [2]): 100% | efficacy (Rhipicephalus sanguineus): 100% | efficacy (laying of fertile eggs) (Boophilus microplus): 100% | efficacy (kill) (Lucilia cuprina): 100% | efficacy (Myzus persicae): 90% | efficacy (Phaedon cochleariae): 100% | efficacy (kill) (Musca domestica): 100% | efficacy (laying of fertile eggs) [3]: 100% | efficacy (Ctenocephalides felis [4]): 100%

Compound: N#CC1(NC(=O)c2cc(-c3cnn(-c4c(Br)cc(C(F)(C(F)(F)F)C(F)(F)F)cc4C(F)(F)F)c3)cnc2Cl)CC1 [I-T3-165]
log P [1, 5]: 3.9 | efficacy (Spodoptera frugiperda): 100% | efficacy (Tetranychus urticae): 100% | efficacy (kill) (Ctenocephalides felis [2]): 100% | efficacy (Rhipicephalus sanguineus): 100% | efficacy (laying of fertile eggs) (Boophilus microplus): 100% | efficacy (kill) (Lucilia cuprina): 100% | efficacy (Myzus persicae): 100% | efficacy (Phaedon cochleariae): 100% | efficacy (kill) (Musca domestica): 100% | efficacy (laying of fertile eggs) [3]: 100% | efficacy (Ctenocephalides felis [4]): 100%

Compound: Cc1cc(C(F)(C(F)(F)F)C(F)(F)F)cc(I)c1-n1cc(-c2ccc(Cl)c(C(=O)NC3CC3)c2)cn1 [I-T3-175]
log P [1, 5]: 4.5 | efficacy (Spodoptera frugiperda): 100% | efficacy (Tetranychus urticae): 100% | efficacy (kill) (Ctenocephalides felis [2]): 100% | efficacy (Rhipicephalus sanguineus): 100% | efficacy (laying of fertile eggs) (Boophilus microplus): 100% | efficacy (kill) (Lucilia cuprina): 100% | efficacy (Myzus persicae): 100% | efficacy (Phaedon cochleariae): 100% | efficacy (kill) (Musca domestica): 100% | efficacy (laying of fertile eggs) [3]: 100% | efficacy (Ctenocephalides felis [4]): 100%

Compound: Cc1cc(C(F)(C(F)(F)F)C(F)(F)F)cc(I)c1-n1cc(-c2ccc(Cl)c(C(=O)NC3(C#N)CC3)c2)cn1 [I-T3-176]
log P [1, 5]: 4.4 | efficacy (Spodoptera frugiperda): 100% | efficacy (Tetranychus urticae): 100% | efficacy (kill) (Ctenocephalides felis [2]): 100% | efficacy (Rhipicephalus sanguineus): 100% | efficacy (laying of fertile eggs) (Boophilus microplus): 100% | efficacy (kill) (Lucilia cuprina): 100% | efficacy (Myzus persicae): 100% | efficacy (Phaedon cochleariae): 100% | efficacy (kill) (Musca domestica): 100% | efficacy (laying of fertile eggs) [3]: 100% | efficacy (Ctenocephalides felis [4]): 100%

logP [1]: 4.4
Compound: Cc1cc(C(F)(C(F)(F)F)C(F)(F)F)cc(C(F)(F)F)c1-c1cc(-c2cnc(Cl)c(C(=O)NC3(C#N)CC3)c2)on1 [I-T22-4]
efficacy (Tetranychus urticae): 100% | efficacy (kill) (Ctenocephalides felis [2]): 100% | efficacy (Rhipicephalus sanguineus): 100% | efficacy (laying of fertile eggs) (Boophilus microplus): 100% | efficacy (Phaedon cochleariae): 100% | efficacy (laying of fertile eggs) [3]: 100%

logP [1]: 4.9
Compound: Cc1cc(C(F)(C(F)(F)F)C(F)(F)F)cc(C(F)(F)F)c1-c1cc(-c2ccc(Cl)c(C(=O)NC3CC3)c2)on1 [I-T22-5]
efficacy (Spodoptera frugiperda): 100% | efficacy (Tetranychus urticae): 100% | efficacy (kill) (Ctenocephalides felis [2]): 100% | efficacy (Rhipicephalus sanguineus): 100% | efficacy (laying of fertile eggs) (Boophilus microplus): 100% | efficacy (kill) (Lucilia cuprina): 100% | efficacy (Myzus persicae): 100% | efficacy (Phaedon cochleariae): 100% | efficacy (kill) (Musca domestica): 100% | efficacy (laying of fertile eggs) [3]: 100% | efficacy (Ctenocephalides felis [4]): 100%

logP [1]: 4.5
Compound: Cc1cc(C(F)(C(F)(F)F)C(F)(F)F)cc(C(F)(F)F)c1-c1cc(-c2cnc(Cl)c(C(=O)NC3CC3)c2)on1 [I-T22-6]
efficacy (kill) (Ctenocephalides felis [2]): 95% | efficacy (Rhipicephalus sanguineus): 100% | efficacy (laying of fertile eggs) (Boophilus microplus): 100% | efficacy (kill) (Lucilia cuprina): 100% | efficacy (Phaedon cochleariae): 100% | efficacy (kill) (Musca domestica): 90% | efficacy (laying of fertile eggs) [3]: 100%

logP [1]: 4.7
Compound: Cc1cc(C(F)(C(F)(F)F)C(F)(F)F)cc(C(F)(F)F)c1-c1cc(-c2ccc(Cl)c(C(=O)NC3(C#N)CC3)c2)on1 [I-T22-7]
efficacy (Spodoptera frugiperda): 100% | efficacy (Tetranychus urticae): 100% | efficacy (kill) (Ctenocephalides felis [2]): 100% | efficacy (Rhipicephalus sanguineus): 100% | efficacy (laying of fertile eggs) (Boophilus microplus): 100% | efficacy (kill) (Lucilia cuprina): 100% | efficacy (Myzus persicae): 100% | efficacy (Phaedon cochleariae): 100% | efficacy (kill) (Musca domestica): 100% | efficacy (laying of fertile eggs) [3]: 100% | efficacy (Ctenocephalides felis [4]): 100%
